Test results taken from US6126909A, “Process and apparatus for the production of BI-212 and a use thereof” (Arch Development Corporation, priority 1999, dated 2000).

Key:
[1] = Retention of chelated and non-chelated Bi-212 in peritoneal fluid; type: in vivo, rabbit; details: rabbits, 3 hours after instillation
Description: Groups of rabbits were instilled with a varying amounts (correlating to varying activities) of Bi-212 that were prepared in accordance with the before-described process, neutralized to pH values of between 5.0 and 7.4, and had added thereto a quantity of normal saline to make a 200 cc sample. To compare the distribution of Bi-212, Pb-212 ferrous hydroxide was prepared in accordance with known methods. Rotmensch et al., Gynecol. Oncol., 35:297-300 (1989). Groups of rabbits were also instilled with the Pb-212 ferrous hydroxide preparation.
Of the groups of rabbits instilled with the Bi-212 solution, a rabbit was imaged and necropsied at each of one-half hour, one hour and three hours after instillation. The percent injected activity (%IA) in each organ was measured to determine the distribution of the Bi-212(Table 6). To determine whether chelating to DTPA improved the retention of Bi-212 in the peritoneal fluid, a group of rabbits was instilled with Bi-212 DTPA, and was imaged and necropsied at three hours following instillation. The percent activity remaining in the peritoneal fluid was measured.

[2] = Toxicity studies, intraperitoneal graded doses; type: in vivo, rabbit
Description: In vivo studies were conducted to determine the distribution of Bi-212 produced using the above-noted process and to compare the Bi-212 distribution to the distribution of Pb-212 ferrous hydroxide in colloidal form. The in vivo studies were conducted using white, female New Zealand rabbits weighing about 4.5 kilograms ([…]) each. Studies were also conducted using rabbits to determine the toxicity levels, e.g., the maximum tolerated dose. Efficacy studies were conducted using 25 gram (gm) female Swiss-Webster mice inoculated with Ehrlich-Lettre Ascites carcinoma cells.
The peritoneal cavities of rabbits were instilled with graded doses of Bi-212. The rabbits were followed until death or for up to three months after their blood counts normalized. The rabbits were necropsied at death or termination of the study and their organs were microscopically examined to determine the effect of the Bi-212 on healthy organs.

[3] = Estimated radiation dose in humans; parameters: species or system human; Gamma dose/100 mCi / Alpha dose/100 mCi / Total dose: unit: cGy; details: for Total dose / Calculated alpha dose / Calculated gamma dose: 100 mCi
Source text: Based upon the in vivo studies, a contemplated dose of 100 mCi to a human produces an alpha and gamma dose to any organ of less than 150 cGy. The calculated alpha dose to the gastrointestinal tract, liver and kidneys is 87.7, 24.6 and 92.5 cGy, respectively, and the calculated gamma dose is 7.39, 4.14 and 5.00 cGy, respectively. Table 9, below, provides the estimated total dose in humans based upon an initial dose of 100 mCi of Bi-212.

For [212Bi] [Bi-212, bismuth-212], the “% activity in blood volume” value [1] was 4.5%, the “% activity in peritoneal fluid” value [1] was 80% and the “% activity in urine” value [1] was 6.0%. For the same molecule, the “Microscopic examination of organs” value ([2]; 60 mCi, three months after instillation) was “only mild blunting of intestinal villi”, the “Histology, small and large intestines” value ([2]; 80 mCi) was “marked individual cell necrosis of gland epithelium of the small and large intestines” and the Survival ([2]; 80 mCi) was “survived about three days”. The Histology ([2]; 100 mCi) was “diffuse epithelial necrosis”, the Survival ([2]; 100 mCi) was “survived about three days” and the Mortality ([2]; doses greater than 60 mCi) was “death within three days”. The Maximum dose tolerated ([2]; rabbits, intraperitoneal) was 60 mCi, the “Alpha dose/100 mCi” value ([3]; GI tract) was 87.7 and the “Gamma dose/100 mCi” value ([3]; GI tract) was 7.39. For the same molecule, the Total dose ([3]; GI tract) was 95.1, the “Alpha dose/100 mCi” value ([3]; brain) was 2.45 and the “Gamma dose/100 mCi” value ([3]; brain) was 0.038. The Total dose ([3]; brain) was 2.49, the “Alpha dose/100 mCi” value ([3]; breasts) was 2.45 and the “Gamma dose/100 mCi” value ([3]; breasts) was 0.643. The Total dose ([3]; breasts) was 3.09, the “Alpha and gamma dose to any organ” value ([3]; contemplated dose of 100 mCi to a human) was “less than 150 cGy” and the Calculated alpha dose ([3]; gastrointestinal tract) was 87.7 cGy. For the same molecule, the Calculated gamma dose ([3]; gastrointestinal tract) was 7.39 cGy, the “Alpha dose/100 mCi” value ([3]; kidneys) was 92.5 and the “Gamma dose/100 mCi” value ([3]; kidneys) was 5.00. For the same molecule, the Calculated alpha dose ([3]; kidneys) was 92.5 cGy, the Calculated gamma dose ([3]; kidneys) was 5.00 cGy and the Total dose ([3]; kidneys) was 97.5. For the same molecule, the “Alpha dose/100 mCi” value ([3]; liver) was 24.6, the “Gamma dose/100 mCi” value ([3]; liver) was 4.14 and the Calculated alpha dose ([3]; liver) was 24.6 cGy. The Calculated gamma dose ([3]; liver) was 4.14 cGy, the Total dose ([3]; liver) was 28.7 and the “Alpha dose/100 mCi” value ([3]; lungs) was 2.45. For the same molecule, the “Gamma dose/100 mCi” value ([3]; lungs) was 1.33, the Total dose ([3]; lungs) was 3.78 and the “Alpha dose/100 mCi” value ([3]; ovaries) was 102.4. The “Gamma dose/100 mCi” value ([3]; ovaries) was 5.42, the Total dose ([3]; ovaries) was 107.8 and the “Alpha dose/100 mCi” value ([3]; pancreas) was 2.45. The “Gamma dose/100 mCi” value ([3]; pancreas) was 17.2, the Total dose ([3]; pancreas) was 19.7 and the “Alpha dose/100 mCi” value ([3]; red marrow) was 2.45. For the same molecule, the “Gamma dose/100 mCi” value ([3]; red marrow) was 2.30, the Total dose ([3]; red marrow) was 4.75 and the “Alpha dose/100 mCi” value ([3]; remainder) was 2.45. The “Gamma dose/100 mCi” value ([3]; remainder) was 1.78, the Total dose ([3]; remainder) was 4.23 and the “Alpha dose/100 mCi” value ([3]; thyroid) was 2.45. For the same molecule, the “Gamma dose/100 mCi” value ([3]; thyroid) was 0.154, the Total dose ([3]; thyroid) was 2.60 and the “Alpha dose/100 mCi” value ([3]; total body) was 2.45. The “Gamma dose/100 mCi” value ([3]; total body) was 1.83, the Total dose ([3]; total body) was 4.28 and the “Alpha dose/100 mCi” value ([3]; uterus) was 102.4. For the same molecule, the “Gamma dose/100 mCi” value ([3]; uterus) was 21.2 and the Total dose ([3]; uterus) was 123.6.
